From PubChem BioAssay (NCI)
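Where inhibition never reached the appropriate level, the endpoint shown equals the highest concentration tested. Otherwise, values were interpolated linearly from a five-concentration, 48-hour dose response in 96-well plates. The concentration for full growth arrest is given as TGI.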

Key:
Test in all cases: NCI tumour cell line growth inhibition, 48 h
HOP-18 NSCLC = tested on: HOP-18 NSCLC
DMS 114 small cell lung = tested on: DMS 114 small cell lung
DLD-1 colon = tested on: DLD-1 colon
XF 498 CNS = tested on: XF 498 CNS
SN12K1 renal = tested on: SN12K1 renal
P388/ADR leukemia = tested on: P388/ADR leukemia
P388 leukemia = tested on: P388 leukemia
RXF-631 renal = tested on: RXF-631 renal

SMILES | TGI (HOP-18 NSCLC) [µM] | TGI (DMS 114 small cell lung) [µM] | TGI (DLD-1 colon) [µM] | TGI (XF 498 CNS) [µM] | TGI (SN12K1 renal) [µM] | TGI (P388/ADR leukemia) [µM] | TGI (P388 leukemia) [µM] | TGI (RXF-631 renal) [µM]
CC[C@]1(O)C[C@H]2CN(CCc3c([nH]c4ccccc34)[C@@](C(=O)OC)(c3cc4c(cc3OC)N(C=O)[C@H]3[C@@](O)(C(=O)OC)[C@H](OC(C)=O)[C@]5(CC)C=CCN6CC[C@]43[C@@H]65)C2)C1 | 87.3 | 0.56 | 144 | 2.5 | 0.134 | 35.5 | 7.83 | 
CCNC(C)Cc1ccccc1 (configuration not stated) | > 100 | > 100 | > 100 |  |  |  |  | 
CCC(C)n1c(C)nc2c1C(=O)c1ccccc1C2=O (configuration not stated) |  |  | > 100 | > 100 |  |  |  | 
OC1[C@H]([C@H]2CCCC[C@@H]2O)CCC[C@@H]1[C@@H]1CCCC[C@H]1O (some centres not stated) | > 100 | > 100 | > 100 | > 100 |  |  |  | 
CC(=O)OC12/C(=N/O)CCCCCC1c1ccccc12 (configuration not stated) | > 100 | > 100 |  | > 100 |  |  |  | 
Cc1ccc(S(=O)(=O)c2c(N)c3nc4ccccc4n3c3nc4ccccc4nc23)cc1 |  | > 100 | > 100 |  |  |  |  | > 100
C=C(CN(C)C)C(=O)c1ccccc1C | > 52.4 | 42.5 | 45.8 | > 75.6 |  |  |  | > 100
CN(C)CCOc1cccc2c1C(=O)c1ccccc1C2=O | 46.9 | 22.6 | 34.5 | 33 |  |  |  | 
CCc1ccc(N=Cc2cc(OC)c(OC)c(OC)c2)cc1 | > 100 | 76.1 | > 100 | > 100 |  |  |  | 
CC1(C)CCC[C@@]2(C)C1CCC1(C)C(CCc3ccoc3)/C(=C/OS(=O)(=O)O)CCC12 (some centres not stated) (tested in a mixture with another compound) | > 100 | > 100 | > 100 | > 100 |  |  |  | > 100
O=C(/C=C/c1ccc(OCCCOc2ccc(/C=C/C(=O)c3ccccc3)cc2)cc1)c1ccccc1 |  | > 100 | > 100 |  |  |  |  | > 100
Cc1cc(N(CCC#N)CCC#N)ccc1/C=C1N=C(/C=C\c2ccccc2)OC\1=O | > 100 | > 100 | > 100 | > 100 |  |  |  | 
